Read-outs that look alike come from different tables or passages of the source.
Key:
[1] = molecular target: T1, ESRRA (estrogen-related receptor alpha) (Homo sapiens, UniProt P11474); test: ATG_ERRa_TRANS: Factorial reporter gene assay (HepG2); assay type: cell-based; conditions: scale not given, looks like -log10 of molar active concentration, 0 = no activity
T1 construct: expressed in transfected cells; host or cells: HepG2
T1 sequence (P11474 1-423): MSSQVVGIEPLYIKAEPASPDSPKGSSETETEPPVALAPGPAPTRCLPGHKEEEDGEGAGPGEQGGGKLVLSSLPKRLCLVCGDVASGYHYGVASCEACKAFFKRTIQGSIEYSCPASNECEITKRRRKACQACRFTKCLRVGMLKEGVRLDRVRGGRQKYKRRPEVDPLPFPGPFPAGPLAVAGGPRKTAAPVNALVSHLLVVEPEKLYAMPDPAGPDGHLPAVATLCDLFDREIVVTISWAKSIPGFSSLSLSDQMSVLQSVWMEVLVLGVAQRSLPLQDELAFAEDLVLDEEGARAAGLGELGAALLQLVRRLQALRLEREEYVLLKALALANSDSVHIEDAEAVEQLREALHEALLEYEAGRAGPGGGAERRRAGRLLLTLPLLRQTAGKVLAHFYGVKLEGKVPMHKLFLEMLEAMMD
Protocol: (§1) A multiple reporter transcription unit (MRTU) library consisting of 48 transcription factor binding sites was transfected into the HepG2 human liver hepatoma cell line. In addition to the cis-acting reporter genes (CIS), a modification of the approach was used to generate a trans-system (TRANS) with a mammalian one-hybrid assay consisting of an additional 25 MRTU library reporting the activity of nuclear receptor super-family members. […] These assays were performed by Attagene Inc. (Morrisville NC) under contract to EPA.
(§2) In addition to the cis-acting reporter genes (CIS), a modification of the approach was used to generate a trans-system (TRANS) with a mammalian one-hybrid assay consisting of an additional 25 MRTU library reporting the activity of nuclear receptor super-family members. […] Chemicals were then tested in the CIS and TRANS assays at seven concentrations starting at the MTC and followed by three-fold serial dilutions. These assays were performed by Attagene Inc. (Morrisville NC) under contract to EPA. Detailed description of the methods, data and analysis methods for this dataset will be presented in a separate publication.

CAR (NR1I3) [2] = molecular target: T2, CAR (NR1I3) (Homo sapiens, UniProt Q14994); test: NVS_NR_hCAR: Human CAR CITCO (cell-free HTS); assay type: binding
T2 sequence (Q14994 1-352): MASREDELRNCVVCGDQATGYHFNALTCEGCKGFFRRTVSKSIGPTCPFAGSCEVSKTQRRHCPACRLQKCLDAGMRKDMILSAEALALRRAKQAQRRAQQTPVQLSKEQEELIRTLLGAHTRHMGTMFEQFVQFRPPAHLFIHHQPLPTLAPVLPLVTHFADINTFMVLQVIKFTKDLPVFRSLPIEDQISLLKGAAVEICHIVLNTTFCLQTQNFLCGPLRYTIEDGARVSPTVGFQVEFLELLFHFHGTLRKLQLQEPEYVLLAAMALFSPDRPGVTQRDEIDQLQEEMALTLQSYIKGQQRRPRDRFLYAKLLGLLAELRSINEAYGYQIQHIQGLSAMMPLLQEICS
Source text: (§3) These are a collection of biochemical assays measuring binding constants and enzyme inhibition values. Chemicals were initially screened at a single concentration in duplicate wells at a concentration of 10 [drawing 63] M for cytochrome P-450 assays and 25 [drawing 64] M for all others. […] These assays were run by Caliper Life Sciences (Hanover, MD) under contract to EPA. Short assay descriptions are available at: http://www.caliperls.com/products/contract-research/in-vitro/.
(§4) Cell-free HTS Assays: A collection of biochemical assays measuring binding constants and enzyme inhibition values. […] These assays were run by Caliper Life Sciences (Hanover, MD) under contract to EPA. Short assay descriptions are available at http://www.caliperls.com/products/contract-research/in-vitro/. Values for all endpoints were imported into GeneData Screener (Basel, Switzerland) and normalised to solvent controls from the same plate as the tested compounds and expressed as percent of neutral control. Concentration-response curves were fit in GeneData Screener (Basel, Switzerland) Condeseo module using the Hill equation and AC50 values were determined. […] Detailed description of the methods, data and analysis methods for this dataset are described in a separate publication.

CAR (NR1I3) [3] = molecular target: T2, CAR (NR1I3); test: NVS_NR_hCAR_Agonist: Human CAR CITCO Agonist (cell-free HTS); assay type: biochemical; conditions: scale not given, looks like -log10 of molar active concentration, 0 = no activity
Source text: as §3, §4

Mouse Liver [4] = conditions: ref ToxRefDB, cited from earlier work
CAR (NR1I3) [5] = molecular target: T2, CAR (NR1I3); test: ATG_CAR_TRANS: Factorial reporter gene assay (HepG2); assay type: cell-based; set-up: endogenous in cells; host or cells: HepG2
Protocol: as §1, §2

FXR (NR1H4) [6] = molecular target: T3, FXR (NR1H4) (Homo sapiens, UniProt Q96RI1); test: NVS_NR_hFXR: Human FXR CDCA (cell-free HTS); assay type: binding; conditions: scale not given, looks like -log10 of molar active concentration, 0 = no activity
T3 sequence (Q96RI1 1-486): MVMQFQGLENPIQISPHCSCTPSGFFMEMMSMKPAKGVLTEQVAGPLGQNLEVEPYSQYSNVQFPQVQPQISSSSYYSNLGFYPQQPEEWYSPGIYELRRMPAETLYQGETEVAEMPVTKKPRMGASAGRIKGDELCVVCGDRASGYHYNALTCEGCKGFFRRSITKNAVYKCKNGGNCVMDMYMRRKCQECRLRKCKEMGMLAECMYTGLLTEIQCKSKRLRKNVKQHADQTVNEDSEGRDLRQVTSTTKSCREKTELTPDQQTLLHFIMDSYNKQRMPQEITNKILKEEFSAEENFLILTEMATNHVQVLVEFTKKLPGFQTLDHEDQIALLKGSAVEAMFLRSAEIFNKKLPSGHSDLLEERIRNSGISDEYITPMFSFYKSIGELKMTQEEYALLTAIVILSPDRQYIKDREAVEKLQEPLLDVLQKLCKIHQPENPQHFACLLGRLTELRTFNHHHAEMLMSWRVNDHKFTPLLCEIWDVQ
Source text: as §3, §4

Mouse Liver [7] = conditions: ref ToxRefDB, cited from earlier work; remark: listed apart in the source
FXR (NR1H4) [8] = molecular target: T3, FXR (NR1H4); test: ATG_FXR_TRANS: Factorial reporter gene assay (HepG2); assay type: cell-based; set-up: expressed in transfected cells; host or cells: HepG2; scale not given here; conditions: scale not given, looks like -log10 of molar active concentration, 0 = no activity
Protocol: as §1, §2

[9] = scale not given, looks like -log10 of molar active concentration, 0 = no activity
[10] = mouse chronic study, liver, any lesion, coded 6 / Inf / 0, code not explained here
[11] = HepG2, scale not given, looks like -log10 of molar active concentration, 0 = no activity
[12] = mouse chronic study, liver, preneoplastic lesion, coded 6 / Inf / 0, code not explained here

Row | SMILES | ATG_ERRa_TRANS [1] | NVS_NR_hCAR (CAR (NR1I3) [2]; [9]) | NVS_NR_hCAR_Agonist (CAR (NR1I3) [3]) | CHR_Mouse_Liver_1_AnyLesion (Mouse Liver [4]; [10]) | ATG_CAR_TRANS (CAR (NR1I3) [5]; [11]) | NVS_NR_hFXR (FXR (NR1H4) [6]) | ATG_FXR_TRANS (FXR (NR1H4) [8]) | further results
1 | CCSC(=O)N(CC(C)C)CC(C)C [r49] | 0 | 0 | 0 | 6 | 0 | – | – | –
2 | O=C1C2CC=CCC2C(=O)N1SC(Cl)(Cl)Cl (stereo not shown) [r51] | 0 | 0 | 0 | – | 0 | – | – | –
3 | Cc1c(COC(=O)C2C(/C=C(\Cl)C(F)(F)F)C2(C)C)cccc1-c1ccccc1 (stereo not shown) [r39] | – | 0 | 0 | 6 | 0 | 0 | 0 | CHR_Mouse_Liver_2_PreneoplasticLesion (Mouse Liver [7]; [12]): 6
4 | CC(C)OC(=O)Nc1cccc(Cl)c1 [r59] | 0 | – | – | 6 | – | 0 | 0 | CHR_Mouse_Liver_2_PreneoplasticLesion (Mouse Liver [7]; [12]): 6
5 | COc1cc(Cl)c(OC)cc1Cl [r57] | 0 | – | – | – | – | – | – | –
6 | CNC(=O)Oc1cccc2ccccc12 [r52] | – | 0 | 0 | 6 | 0 | 0 | 0 | CHR_Mouse_Liver_2_PreneoplasticLesion (Mouse Liver [7]; [12]): 6
7 | CCc1cccc(C)c1N(C(=O)CCl)C(C)COC (stereo not shown) [row 208] | – | – | – | – | – | – | – | NVS_NR_hCAR (CAR (NR1I3) [2]): 4.462
8 | CC(C)(c1ccc(O)cc1)c1ccc(O)cc1 [r40] | 0 | 6.955 | 0 | 6 | 0 | – | – | –
9 | O=C(Nc1ccccc1-c1ccc(Cl)cc1)c1cccnc1Cl [r42] | 0 | 0 | 0 | 6 | 0 | – | – | –
10 | CCCC1COC(Cn2cncn2)(c2ccc(Cl)cc2Cl)O1 (stereo not shown) [r262] | – | – | – | – | – | – | – | CHR_Mouse_Liver_1_AnyLesion (Mouse Liver [4]; mouse, chronic study): 6; CHR_Mouse_Liver_2_PreneoplasticLesion (Mouse Liver [7]; mouse, chronic study): 6
11 | CC1=C(C(=O)Nc2ccccc2)SCCO1 [r53] | 0 | – | – | 6 | – | 0 | 0 | –
12 | CC(C)=CC1C(C(=O)OCc2coc(Cc3ccccc3)c2)C1(C)C (stereo not shown) [r280] | – | – | – | – | – | – | – | CHR_Mouse_Liver_1_AnyLesion (Mouse Liver [4]; chronic study, mouse liver): 6; CHR_Mouse_Liver_2_PreneoplasticLesion (Mouse Liver [7]; chronic study, mouse liver): 6; ATG_CAR_TRANS (CAR (NR1I3) [5]; HepG2 reporter): 4.585
13 | Nc1cnn(-c2ccccc2)c(=O)c1Cl [r56] | – | 0 | 0 | – | 0 | – | – | –
14 | COc1nc(C)nc(NC(=O)NS(=O)(=O)c2ccccc2Cl)n1 [r63] | 0 | 0 | 0 | – | 0 | – | – | –
15 | C#CCC1=C(C)[C@H](OC(=O)[C@H]2[C@H](C=C(C)C)C2(C)C)CC1=O [r249] | – | – | – | – | – | – | – | CHR_Mouse_Liver_1_AnyLesion (Mouse Liver [4]; mouse, chronic study): 6
16 | OB(O)O [r41] | 0 | 0 | 0 | – | 0 | 0 | 0 | –
17 | C=CCOC(=O)C(C)(C)OC(=O)c1cc(-n2c(=O)cc(C(F)(F)F)n(C)c2=O)ccc1Cl [r47] | 0 | 0 | 0 | 6 | 0 | – | – | CHR_Mouse_Liver_2_PreneoplasticLesion (Mouse Liver [7]; [12]): 6
18 | CCCCOCN(C(=O)CCl)c1c(CC)cccc1CC [r46] | 0 | 0 | 0 | – | 0 | 0 | 0 | –
19 | CC(C)N1C(=O)c2ccccc2NS1(=O)=O [r37] | 0 | – | – | 6 | – | – | – | CHR_Mouse_Liver_2_PreneoplasticLesion (Mouse Liver [7]; [12]): 6
20 | COc1nc(C)nc(NC(=O)NS(=O)(=O)c2ccccc2Cl)n1 [r62] | 0 | 0 | 0 | – | 0 | – | – | –
21 | COC(=O)c1ccccc1CS(=O)(=O)NC(=O)Nc1nc(OC)cc(OC)n1 [r33] | 0 | 0 | 0 | – | 0 | 0 | 0 | –
22 | CC(C)Oc1cc(-n2nc(C(C)(C)C)oc2=O)c(Cl)cc1Cl [row 225] | – | – | – | – | – | – | – | CHR_Mouse_Liver_1_AnyLesion (Mouse Liver [4]; chronic mouse study, liver): 6; CHR_Mouse_Liver_2_PreneoplasticLesion (Mouse Liver [7]; chronic mouse study, liver): 6
23 | CCC(C)n1c(=O)[nH]c(C)c(Br)c1=O (stereo not shown) [r43] | 0 | 0 | 0 | 6 | 0 | 0 | 0 | CHR_Mouse_Liver_2_PreneoplasticLesion (Mouse Liver [7]; [12]): 6
24 | CC(C)N1C(=O)N(c2ccccc2)CS/C1=N\C(C)(C)C [r45] | 0 | 0 | 0 | 6 | 0 | – | – | CHR_Mouse_Liver_2_PreneoplasticLesion (Mouse Liver [7]; [12]): 6
25 | Cc1ccccc1CO[C@@H]1C[C@@]2(C(C)C)CC[C@]1(C)O2 [r64] | – | 0 | 0 | 6 | 0 | – | – | CHR_Mouse_Liver_2_PreneoplasticLesion (Mouse Liver [7]; [12]): 6
26 | CCC(C)Nc1c([N+](=O)[O-])cc(C(C)(C)C)cc1[N+](=O)[O-] (stereo not shown) [r48] | 0 | – | – | – | – | – | – | –
27 | CCOC(=O)C(Cl)Cc1cc(-n2nc(C)n(C(F)F)c2=O)c(F)cc1Cl (stereo not shown) [r54] | – | 0 | 0 | 6 | 0 | 0 | 0 | –
28 | N#Cc1c(Cl)c(Cl)c(Cl)c(C#N)c1Cl [r58] | – | 0 | 0 | – | 0 | 0 | 0 | –

From publication PMC3038857, “Using Nuclear Receptor Activity to Stratify Hepatocarcinogens” (PLoS ONE, 2011)
